Results: ChEMBL document CHEMBL3232845 (Bioorg Med Chem Lett, 2014)

How the values were obtained:
[1] = biological target: Dual specificity tyrosine-phosphorylation-regulated kinase 2 (Homo sapiens) (UniProt Q92630); assay: Inhibition of human DYRK2 assessed as enzyme activity at 1 uM relative to control; parameters: scale not given: the % may be the effect or the level left
[2] = biological target: Serine/threonine-protein kinase TBK1 (Homo sapiens) (UniProt Q9UHD2); assay: Inhibition of human TBK1 assessed as enzyme activity at 1 uM relative to control; parameters: scale not given: the % may be the effect or the level left
[3] = biological target: Protein kinase C alpha type (Homo sapiens) (UniProt P17252); assay: Inhibition of human PKCalpha assessed as enzyme activity at 1 uM relative to control; parameters: scale not given: the % may be the effect or the level left
[4] = biological target: Tyrosine-protein kinase HCK (Homo sapiens) (UniProt P08631); assay: Inhibition of human Hck assessed as enzyme activity at 1 uM relative to control; parameters: scale not given: the % may be the effect or the level left
[5] = biological target: Inhibitor of nuclear factor kappa-B kinase subunit alpha (Homo sapiens) (UniProt O15111); assay: Inhibition of human IKKalpha assessed as enzyme activity at 1 uM relative to control; parameters: scale not given: the % may be the effect or the level left
[6] = biological target: Protein-tyrosine kinase 6 (Homo sapiens) (UniProt Q13882); assay: Inhibition of human PTK6 assessed as enzyme activity at 1 uM relative to control; parameters: scale not given: the % may be the effect or the level left
[7] = biological target: Tyrosine-protein kinase Fgr (Homo sapiens) (UniProt P09769); assay: Inhibition of human Fgr assessed as enzyme activity at 1 uM relative to control; parameters: scale not given: the % may be the effect or the level left
[8] = biological target: TAK1/TAB1 (Homo sapiens) (UniProt Q15750+O43318); assay: Inhibition of human TAK1-TAB1 assessed as enzyme activity at 1 uM relative to control; assay type: protein-complex assay; parameters: scale not given: the % may be the effect or the level left
[9] = biological target: MAP kinase-activated protein kinase 3 (Homo sapiens) (UniProt Q16644); assay: Inhibition of human MAPKAP-K3 assessed as enzyme activity at 1 uM relative to control; parameters: scale not given: the % may be the effect or the level left
[10] = biological target: Serine/threonine-protein kinase B-raf (Homo sapiens, UniProt P15056, V600E); assay: Inhibition of full-length B-Raf V600E mutant (unknown origin)
[11] = Oral bioavailability in mouse at 30 mg/kg; assay type: ADME, organism-based; conditions: in vivo
[12] = biological target: Tyrosine-protein kinase JAK3 (Homo sapiens) (UniProt P52333); assay: Inhibition of human JAK3 assessed as enzyme activity at 1 uM relative to control; parameters: scale not given: the % may be the effect or the level left
[13] = test system: Saccharomyces cerevisiae; assay: Inhibition of yeast CK1 assessed as enzyme activity at 1 uM relative to control; parameters: scale not given: the % may be the effect or the level left
[14] = biological target: Serine/threonine-protein kinase SIK1 (Homo sapiens) (UniProt P57059); assay: Inhibition of human SIK assessed as enzyme activity at 1 uM relative to control; parameters: scale not given: the % may be the effect or the level left
[15] = biological target: cGMP-dependent protein kinase 1 (Homo sapiens) (UniProt Q13976); assay: Inhibition of human PRKG1beta assessed as enzyme activity at 1 uM relative to control; parameters: scale not given: the % may be the effect or the level left
[16] = biological target: Serine/threonine-protein kinase PAK 6 (Homo sapiens) (UniProt Q9NQU5); assay: Inhibition of human PAK6 assessed as enzyme activity at 1 uM relative to control; parameters: scale not given: the % may be the effect or the level left
[17] = biological target: Serine/threonine-protein kinase MARK2 (Homo sapiens) (UniProt Q7KZI7); assay: Inhibition of human MARK2 assessed as enzyme activity at 1 uM relative to control; parameters: scale not given: the % may be the effect or the level left
[18] = biological target: Serine/threonine-protein kinase MRCK alpha (Homo sapiens) (UniProt Q5VT25); assay: Inhibition of human MRCKalpha assessed as enzyme activity at 1 uM relative to control; parameters: scale not given: the % may be the effect or the level left
[19] = biological target: Serine/threonine-protein kinase PAK 5 (Homo sapiens) (UniProt Q9P286); assay: Inhibition of human PAK5 assessed as enzyme activity at 1 uM relative to control; parameters: scale not given: the % may be the effect or the level left
[20] = Antitumor activity against human LOX cells expressing B-Raf V600E mutant xenografted in nude mouse assessed as tumor growth inhibition at 30 mg/kg qd for 4 days measured on day 5; assay type: functional; conditions: read-out: TGI
[21] = biological target: Tyrosine-protein kinase Fes/Fps (Homo sapiens) (UniProt P07332); assay: Inhibition of human Fes assessed as enzyme activity at 1 uM relative to control; parameters: scale not given: the % may be the effect or the level left
Chain of Tyrosine-protein kinase Fes/Fps (Homo sapiens) (P07332 whole entry): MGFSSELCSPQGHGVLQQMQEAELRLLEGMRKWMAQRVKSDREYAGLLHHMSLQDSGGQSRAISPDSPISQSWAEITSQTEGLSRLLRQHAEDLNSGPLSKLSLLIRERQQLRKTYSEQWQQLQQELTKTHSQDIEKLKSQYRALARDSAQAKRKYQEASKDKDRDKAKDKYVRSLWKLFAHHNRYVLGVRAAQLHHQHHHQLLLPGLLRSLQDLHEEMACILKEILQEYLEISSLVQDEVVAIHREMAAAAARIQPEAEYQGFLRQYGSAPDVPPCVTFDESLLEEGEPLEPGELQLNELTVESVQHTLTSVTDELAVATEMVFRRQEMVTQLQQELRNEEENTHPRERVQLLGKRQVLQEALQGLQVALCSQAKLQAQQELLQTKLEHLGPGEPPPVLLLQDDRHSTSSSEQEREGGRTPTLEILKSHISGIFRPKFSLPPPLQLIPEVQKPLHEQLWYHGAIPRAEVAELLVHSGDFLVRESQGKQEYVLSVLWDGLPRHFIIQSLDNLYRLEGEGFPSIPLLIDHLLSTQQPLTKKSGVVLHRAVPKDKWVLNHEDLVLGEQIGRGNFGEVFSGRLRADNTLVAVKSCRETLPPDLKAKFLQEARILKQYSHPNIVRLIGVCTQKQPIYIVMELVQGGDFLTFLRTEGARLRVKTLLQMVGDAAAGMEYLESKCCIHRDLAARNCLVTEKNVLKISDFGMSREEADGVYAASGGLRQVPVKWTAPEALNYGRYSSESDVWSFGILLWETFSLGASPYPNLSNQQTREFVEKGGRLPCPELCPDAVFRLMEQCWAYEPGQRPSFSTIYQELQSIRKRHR

[22] = biological target: Mitogen-activated protein kinase kinase kinase 5 (Homo sapiens) (UniProt Q99683); assay: Inhibition of human MAP3K5 assessed as enzyme activity at 1 uM relative to control; parameters: scale not given: the % may be the effect or the level left
Chain of Mitogen-activated protein kinase kinase kinase 5 (Homo sapiens) (Q99683 whole entry): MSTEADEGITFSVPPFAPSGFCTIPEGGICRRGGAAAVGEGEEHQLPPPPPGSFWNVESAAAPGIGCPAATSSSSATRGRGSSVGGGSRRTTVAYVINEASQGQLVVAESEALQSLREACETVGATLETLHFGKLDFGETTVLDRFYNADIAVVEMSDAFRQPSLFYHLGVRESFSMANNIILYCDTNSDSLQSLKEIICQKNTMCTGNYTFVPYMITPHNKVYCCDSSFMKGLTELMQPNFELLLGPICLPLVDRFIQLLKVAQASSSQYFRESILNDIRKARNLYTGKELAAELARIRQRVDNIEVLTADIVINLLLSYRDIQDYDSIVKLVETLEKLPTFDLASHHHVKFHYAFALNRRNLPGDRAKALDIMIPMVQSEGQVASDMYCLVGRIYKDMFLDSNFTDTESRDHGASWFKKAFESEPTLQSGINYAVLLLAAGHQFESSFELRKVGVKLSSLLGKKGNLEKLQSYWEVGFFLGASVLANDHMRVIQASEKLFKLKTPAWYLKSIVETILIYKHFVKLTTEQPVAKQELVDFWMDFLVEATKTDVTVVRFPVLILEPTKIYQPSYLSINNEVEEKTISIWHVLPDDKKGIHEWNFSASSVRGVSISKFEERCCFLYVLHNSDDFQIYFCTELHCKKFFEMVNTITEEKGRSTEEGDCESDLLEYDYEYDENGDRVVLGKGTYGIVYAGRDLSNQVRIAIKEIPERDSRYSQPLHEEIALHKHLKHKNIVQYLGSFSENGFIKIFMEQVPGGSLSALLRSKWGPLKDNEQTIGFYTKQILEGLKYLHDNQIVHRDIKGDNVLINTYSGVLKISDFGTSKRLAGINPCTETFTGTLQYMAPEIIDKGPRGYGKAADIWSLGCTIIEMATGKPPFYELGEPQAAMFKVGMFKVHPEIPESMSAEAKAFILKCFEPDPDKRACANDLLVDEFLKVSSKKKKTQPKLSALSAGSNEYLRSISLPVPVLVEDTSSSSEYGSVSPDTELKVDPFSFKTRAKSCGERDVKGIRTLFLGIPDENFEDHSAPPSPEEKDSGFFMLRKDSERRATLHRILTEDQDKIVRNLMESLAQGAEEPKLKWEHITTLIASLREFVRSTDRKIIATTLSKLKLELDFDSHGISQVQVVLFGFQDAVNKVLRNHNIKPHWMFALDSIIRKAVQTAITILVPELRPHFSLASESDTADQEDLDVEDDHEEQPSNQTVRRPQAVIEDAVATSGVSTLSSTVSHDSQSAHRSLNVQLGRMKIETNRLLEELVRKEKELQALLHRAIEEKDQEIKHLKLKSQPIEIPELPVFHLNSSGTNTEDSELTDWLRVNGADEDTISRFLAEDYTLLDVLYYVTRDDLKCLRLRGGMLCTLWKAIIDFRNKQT

[23] = biological target: Tyrosine-protein kinase Fyn (Homo sapiens) (UniProt P06241); assay: Inhibition of human Fyn assessed as enzyme activity at 1 uM relative to control; parameters: scale not given: the % may be the effect or the level left
[24] = biological target: Mitogen-activated protein kinase 14 (Homo sapiens) (UniProt Q16539); assay: Inhibition of human p38alpha assessed as enzyme activity at 1 uM relative to control; parameters: scale not given: the % may be the effect or the level left
[25] = biological target: Misshapen-like kinase 1 (Homo sapiens) (UniProt Q8N4C8); assay: Inhibition of human MINK assessed as enzyme activity at 1 uM relative to control; parameters: scale not given: the % may be the effect or the level left
[26] = biological target: Dual specificity mitogen-activated protein kinase kinase 1 (Homo sapiens) (UniProt Q02750); assay: Inhibition of human MEK1 assessed as enzyme activity at 1 uM relative to control; parameters: scale not given: the % may be the effect or the level left
[27] = biological target: Serine/threonine-protein kinase 33 (Homo sapiens) (UniProt Q9BYT3); assay: Inhibition of human STK33 assessed as enzyme activity at 1 uM relative to control; parameters: scale not given: the % may be the effect or the level left
[28] = biological target: Rho-associated protein kinase 1 (Homo sapiens) (UniProt Q13464); assay: Inhibition of human ROCK-1 assessed as enzyme activity at 1 uM relative to control; parameters: scale not given: the % may be the effect or the level left
[29] = biological target: Epidermal growth factor receptor (Homo sapiens) (UniProt P00533); assay: Inhibition of human EGFR assessed as enzyme activity at 1 uM relative to control; parameters: scale not given: the % may be the effect or the level left
[30] = biological target: CDK7/Cyclin H/MNAT1 (Homo sapiens) (UniProt P51946+P50613+P51948); assay: Inhibition of human CDK7/cyclinH/MAT1 assessed as enzyme activity at 1 uM relative to control; assay type: protein-complex assay; parameters: scale not given: the % may be the effect or the level left
[31] = biological target: Mitogen-activated protein kinase 10 (Homo sapiens) (UniProt P53779); assay: Inhibition of human JNK3 assessed as enzyme activity at 1 uM relative to control; parameters: scale not given: the % may be the effect or the level left
Chain of Mitogen-activated protein kinase 10 (Homo sapiens) (P53779 whole entry): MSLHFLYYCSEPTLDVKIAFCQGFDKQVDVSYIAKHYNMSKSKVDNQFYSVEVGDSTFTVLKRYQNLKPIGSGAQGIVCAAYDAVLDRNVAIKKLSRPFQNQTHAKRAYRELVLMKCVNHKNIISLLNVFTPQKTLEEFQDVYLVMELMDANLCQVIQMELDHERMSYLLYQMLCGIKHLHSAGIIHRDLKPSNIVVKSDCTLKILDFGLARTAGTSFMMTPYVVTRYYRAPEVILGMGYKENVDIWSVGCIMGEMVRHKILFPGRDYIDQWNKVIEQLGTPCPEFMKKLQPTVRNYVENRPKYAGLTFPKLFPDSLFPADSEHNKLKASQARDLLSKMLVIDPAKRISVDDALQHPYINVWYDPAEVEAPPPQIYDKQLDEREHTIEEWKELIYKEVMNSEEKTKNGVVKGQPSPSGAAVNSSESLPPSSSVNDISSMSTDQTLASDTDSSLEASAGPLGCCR

[32] = biological target: Ephrin type-A receptor 4 (Homo sapiens) (UniProt P54764); assay: Inhibition of human EphA4 assessed as enzyme activity at 1 uM relative to control; parameters: scale not given: the % may be the effect or the level left
[33] = biological target: Serine/threonine-protein kinase Sgk3 (Homo sapiens) (UniProt Q96BR1); assay: Inhibition of human SGK3 assessed as enzyme activity at 1 uM relative to control; parameters: scale not given: the % may be the effect or the level left
[34] = biological target: Macrophage colony-stimulating factor 1 receptor (Homo sapiens) (UniProt P07333); assay: Inhibition of human Fms assessed as enzyme activity at 1 uM relative to control; parameters: scale not given: the % may be the effect or the level left
Chain of Macrophage colony-stimulating factor 1 receptor (Homo sapiens) (P07333 whole entry): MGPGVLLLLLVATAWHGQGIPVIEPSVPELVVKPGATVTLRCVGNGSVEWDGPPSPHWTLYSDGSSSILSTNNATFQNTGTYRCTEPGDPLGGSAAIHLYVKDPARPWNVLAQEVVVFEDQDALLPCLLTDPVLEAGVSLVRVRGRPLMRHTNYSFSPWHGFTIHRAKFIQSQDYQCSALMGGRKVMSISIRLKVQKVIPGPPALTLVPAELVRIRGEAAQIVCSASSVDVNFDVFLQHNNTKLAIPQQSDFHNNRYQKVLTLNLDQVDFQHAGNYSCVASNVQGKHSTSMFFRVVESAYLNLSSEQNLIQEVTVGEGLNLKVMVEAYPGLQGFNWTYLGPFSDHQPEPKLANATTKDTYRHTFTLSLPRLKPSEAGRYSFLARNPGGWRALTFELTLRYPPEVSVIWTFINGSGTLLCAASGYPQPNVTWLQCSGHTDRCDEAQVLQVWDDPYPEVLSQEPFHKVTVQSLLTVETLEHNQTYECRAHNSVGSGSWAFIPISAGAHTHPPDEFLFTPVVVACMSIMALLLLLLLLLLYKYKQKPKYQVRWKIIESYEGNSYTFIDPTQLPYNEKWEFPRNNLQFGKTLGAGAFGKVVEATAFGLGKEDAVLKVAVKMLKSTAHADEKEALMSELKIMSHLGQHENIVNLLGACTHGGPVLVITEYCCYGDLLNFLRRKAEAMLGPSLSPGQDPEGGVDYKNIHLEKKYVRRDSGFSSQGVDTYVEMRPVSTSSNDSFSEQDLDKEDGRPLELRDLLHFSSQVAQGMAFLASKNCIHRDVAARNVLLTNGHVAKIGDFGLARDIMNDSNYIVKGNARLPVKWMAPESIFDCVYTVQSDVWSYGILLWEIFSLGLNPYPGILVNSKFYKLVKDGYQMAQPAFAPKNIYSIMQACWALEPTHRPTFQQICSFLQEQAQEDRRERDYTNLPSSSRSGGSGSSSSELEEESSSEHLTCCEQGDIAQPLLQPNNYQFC

[35] = biological target: Mitogen-activated protein kinase kinase kinase 9 (Homo sapiens) (UniProt P80192); assay: Inhibition of human MLK1 assessed as enzyme activity at 1 uM relative to control; parameters: scale not given: the % may be the effect or the level left
Chain of Mitogen-activated protein kinase kinase kinase 9 (Homo sapiens) (P80192 whole entry, looked up): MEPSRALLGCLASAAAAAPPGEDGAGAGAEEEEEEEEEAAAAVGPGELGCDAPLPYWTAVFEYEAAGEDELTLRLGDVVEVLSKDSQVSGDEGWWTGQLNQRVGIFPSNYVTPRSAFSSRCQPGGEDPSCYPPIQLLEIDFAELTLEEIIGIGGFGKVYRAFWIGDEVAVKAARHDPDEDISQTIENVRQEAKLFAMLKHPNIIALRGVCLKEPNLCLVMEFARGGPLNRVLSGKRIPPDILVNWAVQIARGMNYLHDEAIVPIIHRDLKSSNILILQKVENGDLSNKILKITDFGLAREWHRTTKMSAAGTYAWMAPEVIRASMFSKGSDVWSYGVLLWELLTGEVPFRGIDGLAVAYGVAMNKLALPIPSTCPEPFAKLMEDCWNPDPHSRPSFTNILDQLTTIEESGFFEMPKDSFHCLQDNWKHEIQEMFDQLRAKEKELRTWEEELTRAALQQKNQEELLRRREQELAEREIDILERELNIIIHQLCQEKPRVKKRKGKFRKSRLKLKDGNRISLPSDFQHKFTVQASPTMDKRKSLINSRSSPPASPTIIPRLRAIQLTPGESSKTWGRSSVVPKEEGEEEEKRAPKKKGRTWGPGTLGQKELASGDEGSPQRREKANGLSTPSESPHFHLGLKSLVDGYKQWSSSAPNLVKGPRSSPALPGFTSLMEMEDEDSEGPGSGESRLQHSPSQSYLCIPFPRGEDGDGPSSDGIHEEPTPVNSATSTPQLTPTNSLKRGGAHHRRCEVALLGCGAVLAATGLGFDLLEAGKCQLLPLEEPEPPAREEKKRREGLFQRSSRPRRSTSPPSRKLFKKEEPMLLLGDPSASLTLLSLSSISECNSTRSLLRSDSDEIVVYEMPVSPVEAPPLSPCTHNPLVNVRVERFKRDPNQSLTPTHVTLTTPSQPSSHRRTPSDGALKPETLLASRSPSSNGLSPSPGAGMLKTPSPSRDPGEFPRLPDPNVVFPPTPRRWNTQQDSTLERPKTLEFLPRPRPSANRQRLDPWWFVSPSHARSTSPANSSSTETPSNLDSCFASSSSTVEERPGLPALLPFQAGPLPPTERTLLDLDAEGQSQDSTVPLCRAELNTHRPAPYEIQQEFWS

[36] = biological target: Dual specificity mitogen-activated protein kinase kinase 6 (Homo sapiens) (UniProt P52564); assay: Inhibition of human MKK6 assessed as enzyme activity at 1 uM relative to control; parameters: scale not given: the % may be the effect or the level left
[37] = biological target: Homeodomain-interacting protein kinase 3 (Homo sapiens) (UniProt Q9H422); assay: Inhibition of human HIPK3 assessed as enzyme activity at 1 uM relative to control; parameters: scale not given: the % may be the effect or the level left
[38] = biological target: mTOR/FKBP12A/FKBP12B (Homo sapiens) (UniProt P62942+P68106+P42345); assay: Inhibition of human mTOR/FKBP12 assessed as enzyme activity at 1 uM relative to control; assay type: protein-complex assay; parameters: scale not given: the % may be the effect or the level left
Chain of mTOR/FKBP12A/FKBP12B (Homo sapiens) (P62942 2-108 limits assumed, other chains not shown): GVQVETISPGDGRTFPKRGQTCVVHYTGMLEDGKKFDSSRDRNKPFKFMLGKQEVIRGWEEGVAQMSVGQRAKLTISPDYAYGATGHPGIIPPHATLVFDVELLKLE
Chain of mTOR/FKBP12A/FKBP12B (Homo sapiens) (P68106 whole entry partner, other chains not shown): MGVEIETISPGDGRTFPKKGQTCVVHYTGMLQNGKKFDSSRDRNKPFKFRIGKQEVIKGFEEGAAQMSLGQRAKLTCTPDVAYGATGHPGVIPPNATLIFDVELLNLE

Structure (SMILES): CCCS(=O)(=O)Nc1cccc(Nc2ccc3ncn(C)c(=O)c3c2)c1C#N
- Activity [1]: 99%
- Activity [2]: 98%
- Activity [3]: 97%
- Activity [4]: 94.5%
- Activity [5]: 129%
- Activity [6]: 57.5%
- Activity [7]: 105%
- Activity [8]: 95.5%
- Activity [9]: 121%
- IC50 [10]: 0.3 nM
- bioavailability [11]: 60%
- Activity [12]: 99%
- Activity [13]: 95.5%
- Activity [14]: 143%
- Activity [15]: 106%
- Activity [16]: 110%
- Activity [17]: 100%
- Activity [18]: 127%
- Activity [19]: 99.5%
- inhibition in vivo at 30 mg/kg [20]: 95%
- Activity [21]: 92%
- Activity [22]: 96%
- Activity [23]: 91.5%
- Activity [24]: 103%
- Activity [25]: 106%
- Activity [26]: 97%
- Activity [27]: 91%
- Activity [28]: 108%
- Activity [29]: 102%
- Activity [30]: 104%
- Activity [31]: 104%
- Activity [32]: 119%
- Activity [33]: 108%
- Activity [34]: 99%
- Activity [35]: 90%
- Activity [36]: 118%
- Activity [37]: 106%
- Activity [38]: 104%
